One series concerns colon 38 tumor. Description: Colon 38 tumor weight in mice. The settings on record: dose level 25 mg/kg; evaluated on 20th day of implantation in mice. The format is in vivo. On the procedure: (j) Ravidomycin causes 50% reduction in colon 38 tumor weight at dose level of 25 mg/kg. evaluated on 20th day of implantation in mice.
A short description of series [1]: Solubility in organic solvents.
Series [2] can be described thus: Acute intraperitoneal LD50 in mice. As to conditions: mouse, in vivo, ip, LD50, acute, per body weight.
For the next series, the system named is mice. As to the kind of experiment: Acute intraperitoneal LD50 in mice. The settings on record: acute, i.p., per body weight.
Series [3] relates to Streptomyces ravidus NRRL 11,300. As to the kind of experiment: Streptomycin resistance of the producing organism. As to conditions: 10 μg streptomycin per ml.

Turning to `C=Cc1cc(OC)c2c(c1)c(=O)oc1c2cc(OC)c2c(O)ccc(C3OC(C)C(OC(C)=O)C(N(C)C)C3O)c21` (centres unmarked) [ravidomycin], in the series with colon 38 tumor, the “reduction in colon 38 tumor weight” value worked out at 50%. The solubility result in series [1] (in acetone, methanol, ethanol, chloroform) was “soluble”; in series [1] (in diethyl ether), “sparingly soluble”. Further, the LD50 in series [2] is greater than 400 mg/kg; in the series on mice, “greater than 400 mg/kg”; in the series on mice (listed as Ravidomycin), 400 mg/kg.

On to `[H]/N=C(/N)N[C@H]1[C@H](O)[C@@H](O)[C@H](O[C@@H]2O[C@@H](C)[C@](O)(C=O)[C@H]2O[C@@H]2O[C@@H](CO)[C@H](O)[C@@H](O)[C@@H]2NC)[C@@H](N/C(N)=N\[H])[C@@H]1O` [streptomycin], for which the “resistance of Streptomyces ravidus to streptomycin” value in series [3] is given as “resistant”; in series [3] (listed as Streptomycin), “Resistant”.

By LD50 is commonly meant the dose expected to kill half of the subjects tested. A high value points to lower toxicity.

(Values after patent publication US4230692A, “Ravidomycin and process of preparation” (Ayerst McKenna & Harrison, Inc., priority 1978, dated 1980).)
